What was measured:
heart failure rats = assay: Cardiac function in heart failure rats in vivo with ACE inhibitor captopril, with or without APJ agonist; design: species or system rat; conditions: captopril alone, acute settings
Excerpt: The interaction between […] (ACE2) and Apelin biology is complicated. To investigate the interaction between the Apelin-APJ and ACE signalling pathways, we examined the improvement in cardiac function with APJ small molecule agonists in the presence of ACE inhibitor captopril in heart failure rats in vivo. […] However, in the presence of an APJ agonist, there was a shift in potency to the left with marked improvement in contractility and ejection fraction without changes in heart rate. These findings provide a new reference for the understanding of the regulation of ACE2 for the renin angiotensin aldosterone system (RAAS), independent of AT1R signaling and offer new potential drug targets for the treatment of diseases such as hypertension and heart failure. This work clearly establishes that combination of an agonist of the APJ receptor with an ARB such as losartan and/or with an ACE inhibitor such as captopril which may play an important role in providing greater efficacy in treating heart failure patients, for example in improving contractility and ejection fraction without changing the heart rate.

human APJ receptor = human APJ receptor (Homo sapiens (Human), UniProt P35414); assay: [35S]GTPγS binding assay on membranes from CHO cells stably expressing human APJ receptor; type: biochemical; conditions: membranes of CHO cells stably expressing human APJ receptor, read-out: Activity hAPJ SPA EC50 IP
Chain of human APJ receptor (P35414 whole entry): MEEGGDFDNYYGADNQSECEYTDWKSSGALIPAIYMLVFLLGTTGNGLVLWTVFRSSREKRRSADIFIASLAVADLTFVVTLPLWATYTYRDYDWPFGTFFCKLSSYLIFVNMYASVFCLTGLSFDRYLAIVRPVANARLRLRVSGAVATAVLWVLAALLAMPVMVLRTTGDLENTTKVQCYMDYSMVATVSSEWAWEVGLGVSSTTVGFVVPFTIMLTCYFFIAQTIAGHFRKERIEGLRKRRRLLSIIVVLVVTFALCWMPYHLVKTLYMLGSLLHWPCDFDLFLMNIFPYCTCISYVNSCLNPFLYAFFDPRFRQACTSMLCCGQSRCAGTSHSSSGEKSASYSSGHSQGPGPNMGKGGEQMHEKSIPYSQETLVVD
Outline: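 [35S]GTPγS binding measured on membranes from CHO cells stably expressing FLAG-tagged human APJ, with GDP, MgCl2 and NaCl levels optimized beforehand. Incubation 90 min at RT, imager read-out; EC50 from non-linear regression, averaged over several independent experiments.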

Molecule | improvement in contractility or ejection fraction (heart failure rats) | EC50 (human APJ receptor) [nM]
C[C@H](CS)C(=O)N1CCC[C@H]1C(=O)O [Captopril, captopril] | does not show a marked improvement in contractility or ejection fraction | –
CCc1cc(Cn2c(NS(=O)(=O)[C@@H](C)[C@H](OC)c3ncc(Cl)cn3)nnc2-c2cccc(OC)n2)on1 [Example 292.0, (1R,2S)-1-(5-Chloropyrimidin-2-yl)-N-(4-((3-ethylisoxazol-5-yl)methyl)-5-(6-methoxypyridin-2-yl)-4H-1,2,4-triazol-3-yl)-1-methoxypropane-2-sulfonamide] | – | 2.4
CCc1cc(Cn2c(NS(=O)(=O)[C@@H](C)[C@H](OC)c3ncc(Cl)cn3)nnc2-c2cncc(C)c2)on1 [Example 293.0, (1R,2S)-1-(5-chloropyrimidin-2-yl)-N-(4-((3-ethylisoxazol-5-yl)methyl)-5-(5-methylpyridin-3-yl)-4H-1,2,4-triazol-3-yl)-1-methoxypropane-2-sulfonamide] | – | 200
CCc1cc(Cn2c(NS(=O)(=O)[C@@H](C)[C@@H](OC(C)C)c3ncc(C)cn3)nnc2-c2cccc(OC)n2)on1 [Example 294.0, (1S,2S)-N-(4-((3-ethylisoxazol-5-yl)methyl)-5-(6-methoxypyridin-2-yl)-4H-1,2,4-triazol-3-yl)-1-isopropoxy-1-(5-methylpyrimidin-2-yl)propane-2-sulfonamide] | – | 5.4
COc1cccc(-c2nnc(NS(=O)(=O)[C@@H](C)[C@H](OC)c3ncc(Cl)cn3)n2CC2CCOCC2)n1 [Example 302.0, (1R,2S)-1-(5-chloropyrimidin-2-yl)-1-methoxy-N-(5-(6-methoxypyridin-2-yl)-4-((tetrahydro-2H-pyran-4-yl)methyl)-4H-1,2,4-triazol-3-yl)propane-2-sulfonamide] | – | 53
(1R,2S)-1-(5-Chloropyrimidin-2-yl)-1-methoxy-N-(4-((1R,2R)-2-methoxycyclobutyl)-5-(6-methoxypyridin-2-yl)-4H-1,2,4-triazol-3-yl)propane-2-sulfonamide and (1R,2S)-1-(5-chloropyrimidin-2-yl)-1-methoxy-N-(4-((1S,2S)-2-methoxycyclobutyl)-5-(6-methoxypyridin-2-yl)-4H-1,2,4-triazol-3-yl)propane-2-sulfonamide [Example 155.0] | – | 3.1
(1R,2S)-1-(5-chloropyrimidin-2-yl)-1-methoxy-N-(5-(6-methoxypyridin-2-yl)-4-(((S)-oxetan-2-yl)methyl)-4H-1,2,4-triazol-3-yl)propane-2-sulfonamide or (1R,2S)-1-(5-chloropyrimidin-2-yl)-1-methoxy-N-(5-(6-methoxypyridin-2-yl)-4-(((R)-oxetan-2-yl)methyl)-4H-1,2,4-triazol-3-yl)propane-2-sulfonamide [Example 140.0] | – | 42
(1R,2S)-1-(5-chloropyrimidin-2-yl)-1-methoxy-N-(5-(6-methoxypyridin-2-yl)-4-(((S)-oxetan-2-yl)methyl)-4H-1,2,4-triazol-3-yl)propane-2-sulfonamide or (1R,2S)-1-(5-chloropyrimidin-2-yl)-1-methoxy-N-(5-(6-methoxypyridin-2-yl)-4-(((R)-oxetan-2-yl)methyl)-4H-1,2,4-triazol-3-yl)propane-2-sulfonamide [Example 141.0] | – | 16
